Results taken from US11529362B2, “Physiologically balanced injectable formulations of fosnetupitant” (HELSINN HEALTHCARE SA, priority 2016, dated 2022).
Where two headings read alike, the source gives them in different places. One block for each compound: values may come before it.

Experiments:
[1] = p-Netu solubility studies; assay type: physicochemical; conditions: in water at acidic pH values less than 7.0
Text: A study was undertaken to determine the maximum allowable concentration of netupitant in aqueous solutions of p-Netu, above which unacceptable precipitation is observed.

[2] = Akynzeo prescribing information, cited from earlier work
[3] = presence of EDTA, in proportion to its concentration in solution

p-Netu solubility [1]: drops significantly
Compound: Cc1ccccc1-c1cc(N2CC[N+](C)(COP(=O)([O-])O)CC2)ncc1N(C)C(=O)C(C)(C)c1cc(C(F)(F)F)cc(C(F)(F)F)c1 [p-Netu, 4-(5-(2-(3,5-bis(trifluoromethyl)phenyl)-N,2-dimethylpropanamido)-4-(o-tolyl)pyridin-2-yl)-1-methyl-1-((phosphonooxy)methyl) piperazin-1-ium]

Compound: Cc1ccccc1-c1cc(N2CCN(C)CC2)ncc1N(C)C(=O)C(C)(C)c1cc(C(F)(F)F)cc(C(F)(F)F)c1 [netupitant, 2-(3,5-bis(trifluoromethyl)phenyl)-N,2-dimethyl-N-(6-(4-methylpiperazin-1-yl)-4-(o-tolyl)pyridine-3-yl)propanamide]
systemic exposure ([2]; dose increase from 10 mg to 300 mg): greater than dose-proportional increase
systemic exposure ([2]; dose increase from 300 mg to 450 mg): dose-proportional increase

Compound: O=C([O-])CN(CCN(CC(=O)[O-])CC(=O)O)CC(=O)O.[Na+].[Na+] [EDTA, Disodium edetate]
conversion of p-Netu to 14-Netu [3]: reduced
